This note sets out measurements from patent US20080280891A1, “Anti-cancer agents and uses thereof” (Locus Pharmaceuticals, Inc., priority 2006, published 2008).

Where only a bound is given, the exact number is not on record here.

The test system of assay [1] is MCF-7 breast cancer cells. Briefly: Cell cycle assay (Example 163), G2/M block in MCF-7 cells. In kind it is cell-based. As to conditions: Homo sapiens, MCF7, 24 h, flow cytometry (PI), Table 2. How it is done:
(§1) MCF-7 breast cancer cells and Jurkat T-cell leukemic cells were grown (and maintained) in EMEM and RPMI media, respectively, containing 10% fetal calf serum.
Cells were allowed to adhere for 24 hrs. After adherence, cell culture media was changed to that containing 0.5% FCS. Thirty minutes post-media change, test compounds were added at a concentration of 1 μM. Twenty-fours after test agent addition, cells were analyzed for cell cycle status as described below.
(§2) Cell cycle status was analyzed by flow cytometry. Briefly, cells were collected and washed with FACs buffer (Pharmingen) and resuspended and fixed in 1 mL of 80% ethanol for 1 hr. Cells were washed with FACs buffer and resuspended in propidium iodide(PI)/RNase staining buffer (Pharmingen). PI is a fluorescent dye that labels nucleic acids such as DNA. The fluorescence within a cell (in the presence of PI) is proportional to the amount of DNA within a cell. The cell content of DNA is an indices of status in the cell cycle. […] Cells in the S phase have DNA content that lies between these extremes.
(§3) For testing of cell cycle effects of test agents the percentage of cells within the G1 and G2/M phase were measured.
(Flow cytometry measures light scatter and fluorescence of single cells or particles in a stream.)

The test system of assay [2] is Jurkat T-cell leukemic cells. Briefly: Cell cycle assay (Example 163), G2/M block in Jurkat cells. As to conditions: Homo sapiens, Jurkat, 24 h, flow cytometry (PI), Table 2. In kind it is cell-based. How it is done: as §1
Test agents were added a concentration of 0.1 μM. Twenty-fours after test agent addition, cells were analyzed for cell cycle status as described below.
as §2, §3

`CC(=O)Nc1cc(SCc2cccnc2)cc(-c2cccc3[nH]ccc23)c1` [N-[3-(1H-Indol-4-yl)-5-(pyridin-3-ylmethylsulfanyl)-phenyl]-acetamide] had an activation at 1 µM in assay [1] not below 50%. The same compound returned an activation at 0.1 µM in assay [2] of less than 50%.

Consider `NC(=O)c1cc(Nc2cccnc2)cc(-c2cccc3[nH]ccc23)c1` [3-(1H-Indol-4-yl)-5-(pyridin-3-ylamino)-benzamide], for which the activation at 1 µM in assay [1] was not below 50%. The compound further returned an activation at 0.1 µM in assay [2] not below 50%.

With `N#Cc1ccc(Nc2cc(O)cc(-c3cccc4[nH]ccc34)c2)cn1` [5-[3-Hydroxy-5-(1H-indol-4-yl)-phenylamino]-pyridine-2-carbonitrile], in assay [1], the activation at 1 µM is not below 50%. Further, the activation at 0.1 µM in assay [2] is not below 50%.

For `Oc1cc(Nc2cccnc2)cc(-c2cccc3c2OCO3)c1` [3-Benzo[1,3]dioxol-4-yl-5-(pyridin-3-ylamino)-phenol], the activation at 1 µM in assay [1] was not below 50%. The compound also displayed an activation at 0.1 µM in assay [2] not below 50%.

Consider `CS(=O)(=O)Nc1cc(C(=O)c2ccnc(Cl)c2)cc(-c2cccc3[nH]ccc23)c1` [N-[3-(2-Chloro-pyridine-4-carbonyl)-5-(1H-indol-4-yl)-phenyl]-methanesulfonamide], for which, in assay [1], the activation at 1 µM is not below 50%. In assay [2], this compound came in with an activation at 0.1 µM not below 50%.

With `CS(=O)(=O)Nc1cc(C(=O)c2cccnc2)cc(-c2cccc3[nH]c(C#N)cc23)c1` [N-[3-(2-Cyano-1H-indol-4-yl)-5-(pyridine-3-carbonyl)-phenyl]-methanesulfonamide], the activation at 1 µM in assay [1] is not below 50%. In assay [2], this compound registered an activation at 0.1 µM not below 50%.

In the case of `CCC(=O)Nc1cc(C(=O)c2cccnc2)cc(-c2cccc3[nH]ccc23)c1` [N-[3-(1H-Indol-4-yl)-5-(pyridine-3-carbonyl)-phenyl]-propionamide], the activation at 1 µM in assay [1] was not below 50%. In assay [2], this compound registered an activation at 0.1 µM of less than 50%.

In assay [1], `CC(=O)Nc1cc(C(=O)c2ccncc2)cc(-c2cccc3[nH]ccc23)c1` [N-[3-(1H-Indol-4-yl)-5-(pyridine-4-carbonyl)-phenyl]-acetamide] had an activation at 1 µM not below 50%. In addition, the activation at 0.1 µM in assay [2] is not below 50%.

The compound `COC(=O)Nc1cc(Nc2cccnc2)cc(-c2cccc3[nH]ccc23)c1` [[3-(1H-Indol-4-yl)-5-(pyridin-3-ylamino)-phenyl]-carbamic acid methyl ester] yielded an activation at 1 µM in assay [1] not below 50%. This compound gave an activation at 0.1 µM in assay [2] of less than 50%.

In assay [1], `COc1ccc(C(=O)c2cc(O)cc(-c3cccc4[nH]ccc34)c2)cn1` [[3-Hydroxy-5-(1H-Indol-4-yl)-phenyl]-(6-methoxy-pyridin-3-yl)-methanone] gave an activation at 1 µM not below 50%. In assay [2], this compound came in with an activation at 0.1 µM not below 50%.

`COc1cc(C(=O)c2cc(N)cc(-c3cccc4[nH]ccc34)c2)ccn1` [[3-Amino-5-(1H-indol-4-yl)-phenyl]-(2-methoxy-pyridin-4-yl)-methanone] gave an activation at 1 µM in assay [1] not below 50%. In assay [2], this compound registered an activation at 0.1 µM not below 50%.

On to `NC(=O)c1ccc(Nc2cc(O)cc(-c3cccc4[nH]ccc34)c2)cn1` [5-[3-Hydroxy-5-(1H-indol-4-yl)-phenylamino]-pyridine-2-carboxylic acid amide], for which the activation at 1 µM in assay [1] was not below 50%. The activation at 0.1 µM in assay [2] is not below 50%.

In the case of `O=C(c1cccnc1)c1cc(-c2cccc3[nH]ccc23)cc(N2CCCC2=O)c1` [1-[3-(1H-Indol-4-yl)-5-(pyridine-3-carbonyl)-phenyl]-pyrrolidin-2-one], the activation at 1 µM in assay [1] is not below 50%. The compound further registered an activation at 0.1 µM in assay [2] of less than 50%.

With `Oc1cc(Nc2ccccc2)cc(-c2cccc3[nH]ccc23)c1` [3-(1H-Indol-4-yl)-5-phenylamino-phenol], in assay [1], the activation at 1 µM is not below 50%. Further, the activation at 0.1 µM in assay [2] is not below 50%.

For the compound `O=C(c1cccnc1)c1cc(O)cc(-n2ccc3cc(F)ccc32)c1` [[3-(5-Fluoro-indol-1-yl)-5-hydroxy-phenyl]-pyridin-3-yl-methanone], in assay [1], the activation at 1 µM was not below 50%. For the same compound, the activation at 0.1 µM in assay [2] was not below 50%.

With `CS(=O)(=O)Nc1cc(C(=O)c2ccncc2)cc(-c2cccc3[nH]ccc23)c1` [N-[3-(1H-Indol-4-yl)-5-(pyridine-4-carbonyl)-phenyl]-methanesulfonamide], in assay [1], the activation at 1 µM is not below 50%. This compound also gave an activation at 0.1 µM in assay [2] not below 50%.

Compound `CC(=O)Nc1cc(Br)cc(C(=O)c2cccnc2)c1` [N-[3-Bromo-5-(pyridine-3-carbonyl)-phenyl]-acetamide] displayed an activation at 1 µM in assay [1] not below 50%. The same compound returned an activation at 0.1 µM in assay [2] not below 50%.

`CS(=O)(=O)Nc1cc(Nc2cccnc2)cc(-c2cccc3[nH]ccc23)c1` [N-[3-(1H-Indol-4-yl)-5-(pyridin-3-ylamino)-phenyl]-methanesulfonamide]: the activation at 1 µM in assay [1] was not below 50%. In assay [2], this compound showed an activation at 0.1 µM of less than 50%.

In assay [1], `O=C(Nc1cc(C(=O)c2cccnc2)cc(-c2cccc3[nH]ccc23)c1)OCc1ccccc1` [[3-(1H-Indol-4-yl)-5-(pyridine-3-carbonyl)-phenyl]-carbamic acid benzyl ester] gave an activation at 1 µM not below 50%. The same compound gave an activation at 0.1 µM in assay [2] of less than 50%.

Regarding `NC(=O)c1cc(Nc2cnccn2)cc(-c2cccc3[nH]ccc23)c1` [3-(1H-Indol-4-yl)-5-(pyrazin-2-ylamino)-benzamide], the activation at 1 µM in assay [1] was not below 50%. Further, the activation at 0.1 µM in assay [2] was less than 50%.

In assay [1], `O=C(c1cccnc1)c1cc(-c2cccc3[nH]ccc23)ccc1O` [[2-Hydroxy-5-(1H-indol-4-yl)-phenyl]-pyridin-3-yl-methanone] showed an activation at 1 µM not below 50%. Also, the activation at 0.1 µM in assay [2] is not below 50%.

As to `COC(=O)c1cc(Nc2cccnc2)cc(-c2cccc3[nH]ccc23)c1` [3-(1H-Indol-4-yl)-5-(pyridin-3-ylamino)-benzoic acid methyl ester], in assay [1], the activation at 1 µM was not below 50%. The same compound yielded an activation at 0.1 µM in assay [2] not below 50%.

In assay [1], `O=COCCOCc1ncccc1Nc1cc(O)cc(-c2cccc3[nH]ccc23)c1` [Formic acid 2-{3-[3-hydroxy-5-(1H-indol-4-yl)-phenylamino]-pyridin-2-ylmethoxy}-ethyl ester] gave an activation at 1 µM not below 50%. Besides, the activation at 0.1 µM in assay [2] was less than 50%.

As for `COc1cc(C(=O)c2cc(NC(C)=O)cc(-c3cccc4[nH]ccc34)c2)ccn1` [N-[3-(1H-Indol-4-yl)-5-(2-methoxy-pyridine-4-carbonyl)-phenyl]-acetamide], the activation at 1 µM in assay [1] is not below 50%. Besides, the activation at 0.1 µM in assay [2] was not below 50%.

In the case of `CC(=O)Nc1cc(-c2nc3ncccc3o2)cc(-c2cccc3[nH]ccc23)c1` [N-[3-(1H-Indol-4-yl)-5-oxazolo[4,5-b]pyridin-2-yl-phenyl]-acetamide], the activation at 1 µM in assay [1] was not below 50%. In assay [2], the activation at 0.1 µM was less than 50%.

Turning to `N#Cc1cc2c(-c3cc(O)cc(Nc4cccnc4)c3)cccc2[nH]1` [4-[3-Hydroxy-5-(pyridin-3-ylamino)-phenyl]-1H-indole-2-carbonitrile], in assay [1], the activation at 1 µM was less than 50%. In assay [2], this compound showed an activation at 0.1 µM not below 50%.

`CC(=O)Nc1cc(-c2cccc3[nH]ccc23)cc(S(=O)(=O)c2cccnc2)c1` [N-[3-(1H-Indol-4-yl)-5-(pyridine-3-sulfonyl)-phenyl]-acetamide]: the activation at 1 µM in assay [1] is not below 50%. The same compound registered an activation at 0.1 µM in assay [2] of less than 50%.

In assay [1], `CC(=O)Nc1cc(C(=O)c2ccnc(Cl)c2)cc(-c2cccc3[nH]ccc23)c1` [N-[3-(2-Chloro-pyridine-4-carbonyl)-5-(1H-indol-4-yl)-phenyl]-acetamide] returned an activation at 1 µM not below 50%. The compound further displayed an activation at 0.1 µM in assay [2] not below 50%.
